From US10111935B2, “Agent for capturing tumor cells and methods of use thereof” (priority 2014, dated 2018)
pIC50: −log10 of the molar value. Where two headings read alike, the source gives them in different places.

Tested on: SKOV3 cells
Test: IC50 concentration of standard ovarian cancer chemotherapy
Type: cell-based

## N.N.O=C([O-])C1(C(=O)[O-])CCC1.[Pt+2] [Carboplatin]
Carboplatin individually, read-out: IC50
  pIC50: 5.00
Carboplatin part of the combination, read-out: IC50 in combination Paclitaxel+Carboplatin
  pIC50: 6.00
